Reference: patent publication US9585871B2, “Method for treating and curing leishmaniosis using fexinidazole” (Merial Limited, priority 2013, dated 2017)
“And” between values parts separate entries of the source, which are not always exact repeats. Identical values can stand only once.

How the values were obtained:
L. infantum = assay: Clinical study in dogs infected with L. infantum: IFAT antibody titers; assay type: in vivo; settings: Glucantime 100 mg/kg dNMA SC or Fexinidazole 60 mg/kg PO once daily Days 0-27
Procedure: In a clinical study, dogs infected with L. infantum were treated with meglumine antimoniate (GLUCANTIME®, Merial) as a positive control, or FEX (Table 5). Eight blocks of two animals were formed based antibody titers and biological scores. Six dogs in each group were naturally infected by housing them in an endemic area for two years and two dogs in each group were artificially infected by intravenous administration of a known quantity of parasites recovered from the spleen of an infected dog.
The first group (FEX) was compared to the second group, which was treated with 27 mg/kg GLUCANTIME (meglumine antimoniate, or 100 mg/kg of dNMA) “GLU”), over 28 days.
Variables. The Clinical Score is an additive score of various clinical signs (body condition, lymphadenopathy, splenomegaly, appetite, behavior, mucous membrane color, dermatopathology, ocular signs, digestive signs, arthropathy) evaluated before treatment and on Days 7, 14, 21, 28, 57, 184, 219, 254, 282, 310, 345, 400 and 436. The Overall Biological Score is an additive score based on the severity of changes in hematology/chemistry values (creatinine, urine protein/creatinine, Hct, globulin, ALAT), evaluated pretreatment and on Days 28, 57, and 181. The L. infantum immunofluorescent antibody titers (IFAT) were determined from samples collected before treatment and on Days 28, 57, and 181. Finally, quantitative PCR (qPCR) for L. infantum was conducted on spleen aspirates collected before treatment and on Days 28, 57, 142, 184, and 373.

[1] = Excretion and metabolites of labeled FEX; assay type: in vivo
From the text: Toxicology summary. In mice and rats, the maximum fexinidazole (FEX) dose after oral administration is 10 g/kg of body weight. […] Finally, as regards PK, labeled FEX and its metabolites were excreted within 3 days in the feces (52-58%) and urine (36-40%).

[2] = labeled FEX and its metabolites, within 3 days

In the case of `CSc1ccc(OCc2ncc([N+](=O)[O-])n2C)cc1` [Fexinidazole, fexinidazole], the “L. infantum IFAT Antibody Titers” value (L. infantum; Day 28, individual dogs) is reported as 1/80, the “L. infantum IFAT Antibody Titers” value (L. infantum; Day 57, individual dogs) is reported as 1/640 (2×) and 1/320 and 1/80 and the “L. infantum IFAT Antibody Titers” value (L. infantum; Day 181, individual dogs) is reported as 1/640 (2×) and 1/320 and 1/80. For the same compound, the “time to excretion of labeled FEX and its metabolites” value ([1]; feces and urine) was no more than 3 days, the main metabolites ([1]; in vivo) was “the sulfoxide, the sulfone, and the corresponding phenolic fragments” and the “excretion in the feces” value [1, 2] was 52-58%. The “excretion in the urine” value [1, 2] was 36-40%.
